Counter-ions that a name gives are not always drawn.
Experiments:
acne vulgaris = assay: Case with treatment of acne vulgaris; assay type: in vivo, human; conditions: person; for Reddened inflamed area surrounding the lesion: topical treatment of acne vulgaris
Source text: A person was suffering from acne vulgaris characterised by comedones and some inflammatory lesions. They had previously regularly used a 5% benzoyl peroxide cream to treat the condition. During a flare up of the condition they applied a 5.0% aqueous solution of Pemirolast (potassium salt) once daily for four weeks to the areas affected. […] The treatment was followed and assessed by a physician.

PPAR-α = biological target: T1, PPAR-α (Homo sapiens, UniProt Q07869); assay: Gal-4-PPAR luciferase reporter assay in HEK 293-T (Indigo Biosciences); assay type: cell-based; conditions: % inhibition 50, 14 hours treatment, read-out: Concentration of Pemirolast giving 50 % inhibition of PPAR-α
T1 sequence (Q07869 200-468 limits assumed): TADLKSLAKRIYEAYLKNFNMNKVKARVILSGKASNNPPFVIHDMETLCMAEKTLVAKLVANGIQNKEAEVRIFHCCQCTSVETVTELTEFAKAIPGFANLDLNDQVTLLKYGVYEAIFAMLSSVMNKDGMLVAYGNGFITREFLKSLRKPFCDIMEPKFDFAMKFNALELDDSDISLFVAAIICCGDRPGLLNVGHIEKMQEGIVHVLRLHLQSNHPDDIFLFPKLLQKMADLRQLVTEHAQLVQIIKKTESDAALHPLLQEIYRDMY
Procedure: (§1) The inhibitory effect of Pemirolast on PPAR was determined by Indigo Biosciences. The following assay procedure was used: Compounds were diluted in DMSO to a final concentration of […] and serial dilutions prepared. The cell line HEK 293-T was transiently transfected with Gal-4-human PPARα, γ, Gal-4-luciferase and pRL (renilla, to correct for efficiency). The cells were treated with Pemirolast or with positive controls (ciprofibrate, or rosiglitazone) for 14 hours. The cells were lysed and luciferase and renilla activity were determined.

PPAR-γ = biological target: T2, PPAR-γ (Homo sapiens, UniProt P37231); assay: as above; assay type: cell-based; conditions: % inhibition 50, 14 hours treatment, read-out: Concentration of Pemirolast giving 50 % inhibition of PPAR-γ
T2 sequence (P37231 238-505 limits assumed): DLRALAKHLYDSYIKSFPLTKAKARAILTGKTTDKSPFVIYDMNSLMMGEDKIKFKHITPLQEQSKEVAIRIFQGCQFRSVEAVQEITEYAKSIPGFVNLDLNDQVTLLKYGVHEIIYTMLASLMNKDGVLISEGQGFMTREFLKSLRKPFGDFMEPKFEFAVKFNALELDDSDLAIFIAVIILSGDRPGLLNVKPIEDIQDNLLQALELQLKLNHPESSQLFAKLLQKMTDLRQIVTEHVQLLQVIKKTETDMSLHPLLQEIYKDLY
Procedure: as §1

IL-1α = assay: Cytokine production, LPS induced human PBMC; assay type: cell-based; conditions: stated in words only, no value
Procedure: The inhibition of Pemirolast on cytokine production was determined using the assay “LPS induced human PBMC”.

[1] = tested on: arachidonic acid-induced ear inflammation; assay: Arachidonic acid-induced ear-inflammation test in mice; assay type: in vivo, female BALB/cA mice; conditions: intraperitoneal, 30 minutes before arachidonic acid; ear oedema one hour after
Procedure: The anti-inflammatory potential of Pemirolast can be tested in “arachidonic acid-induced ear-inflammation test in mice”, a commonly employed method for screening and evaluation of antiinflammatory drugs. Dexamethasone was employed as reference compound.
The study can be performed in female BALB/cA mice from M & B A/S, DK-8680 Ry. The test substances (various concentration of Pemirolast dissolved in aqueous solutions) and the reference compound are administered intraperitoneally in volumes of 20 ml per kg body weight 30 minutes before application of arachidonic acid to the ear. All groups are then treated with 20 μl arachidonic acid, 100 mg/ml in acetone, on the right ear.
One hour after the application of arachidonic acid the mice are sacrificed, the ears cut from the tip with a punch biopsy knife (8 mm diameter) and weighed. Mean weights and standard deviations are calculated. Relative ear oedema is assessed as the weight difference between right and left ear of each mouse expressed as percent of the left ear. Percent inhibition of the relative ear oedema compared with the vehicle treated groups is calculated for the test substance and reference compound treated groups. […]

[2] = 5.0% aqueous solution once daily for four weeks, topical

IC50 (PPAR-α) | IC50 (PPAR-γ) | Compound | Inflammatory acne lesions after treatment (acne vulgaris; [2]) | Scarring after treatment (acne vulgaris; [2]) | Reddened inflamed area surrounding the lesion (acne vulgaris) | Inhibition of IL-1α (IL-1α) | Effect on inflammatory reaction in the arachidonic acid treated ear [1]
 |  | Cc1cccn2c(=O)c(-c3nnn[nH]3)cnc12 [Pemirolast (potassium salt)] | completely recessed | without any noticeable scarring | also recessed |  | 
17 µM | 20 µM | Cc1cccn2c(=O)c(-c3nnn[nH]3)cnc12 [Pemirolast, 9-methyl-3-(1H-tetrazol-5-yl)-4H-pyrido[1,2-a]pyrimidin-4-one] |  |  |  | inhibits | significantly prevented the inflammatory reaction
 |  | O=C(OOC(=O)c1ccccc1)c1ccccc1 [benzoyl peroxide] |  |  | did not remove the reddened inflamed area |  | 

Source: patent publication US20070225301A1, “TREATMENT OF ACNE AND OTHER DISEASES” (Astion Inflammation ApS, priority 2006, published 2007)
